Measurements reported in article PMC7553701 (Toxicological Sciences, 2020).
Converted amounts (≈) assume the structure as drawn. “Also recorded” adds a separate entry of the source. Like-named read-outs stand apart in the source and are kept apart here. Values belong to the compound of their own block, whether it stands above or below them.

Experiments:
NRF2 = experiment: HEK cell CYP450-dependent versus -independent NRF2 stabilization assay; type: cell-based, human; conditions: for NRF2 activation: HEK Cyp3A4 and parental cell lines, up to 90 µM; for NRF2 activation with and without CYP450 expression: HEK-CYP cell lines, [− Dox] and [+ Dox]; for NRF2 protein level in noninduced cells: HEK293/CYP cells without Dox; for NRF2 protein level in cells expressing other CYP isoforms: HEK293 cells expressing the other 7 CYP isoforms
Cyp3A4 = Cyp3A4 (Homo sapiens, UniProt P08684, DEL224-224/T224I/V225I); experiment: Cyp3A4 degradation in HEK Cyp3A4 cell line; type: cell-based; conditions: up to 90 µM
rat HepatoPac = experiment: Urea synthesis in rat HepatoPac cultures; type: cell-based; conditions: 9 days
human HepatoPac [1] = experiment: Urea synthesis in human HepatoPac cultures; type: cell-based; conditions: 9 days of exposure
Biliary excretion = type: cell-based; conditions: human HepatoPac cultures, plasma or biological fluid
rat [2] = experiment: 6-month rat toxicology study; type: in vivo; conditions: 6 months, highest dose tested
NHP = experiment: 9-month NHP toxicology study; type: in vivo; conditions: 9 months, highest dose tested
Mouse = experiment: 6-month mouse toxicology study; type: in vivo; conditions: 6 months, highest dose tested
Dog = experiment: 1-month dog toxicology study; type: in vivo; conditions: high dose with excessive body weight loss
[3] = Clinical studies: liver safety and exposure; conditions: human, in vivo, 900 mg
[4] = test system: NRF2/Keap1 and NRF1 coregulated gene network in rat liver; conditions: for maximum daily dose (boundary) predicted from BA-LRA score: clinical daily dose; for BA-LRA score / BA-LRA outcome, day 1 single dose study: rat; for rat BA-LRA result: in vivo rat liver, threshold 0.22; for BA-LRA outcome, day 1 single dose study: day 1 single dose sample collection
human HepatoPac [5] = conditions: ref Hafey et al., unpublished data, cited from earlier work
HepG2 = conditions: 24 h, HepG2 glucose-galactose shift; ref Xu et al., 2019; cited from earlier work
patients = conditions: ref Hargreaves and Olesen, 2019, cited from earlier work
rat [6] = experiment: Histopathology, clinical chemistry and tolerability in short-term rat studies; type: in vivo; conditions: oral gavage, high dose 500–750 mkd
rat liver = experiment: BA-LRA score calculated from Open TG-GATEs Affymetrix GeneChip data; type: in vivo; conditions: 600 mkd, 24 h, Affymetrix platform; ref Igarashi et al., 2015
human hepatocytes = experiment: Covalent protein binding; type: in vitro ADME; conditions: radiolabeled drug
[7] = test system: rat hepatocyte micropatterned coculture model (HepatoPac); experiment: In vitro BA-LRA in rat HepatoPac; type: cell-based; conditions: 9 days, at 50 µM
human HepatoPac [8] = experiment: In vitro BA-LRA in human HepatoPac; type: cell-based; conditions: at 50 µM
[9] = test system: bile salt export pump (BSEP); experiment: Bile salt export pump; type: biochemical; conditions: modeling a dose of 280 mg; ref Hafey et al., unpublished data
BSEP = conditions: siRNA BSEP KD rat; ref Li et al., 2019; cited from earlier work

urea synthesis (human HepatoPac [1]): lack of urea synthesis inhibition
solubility (Biliary excretion): 50 µM (≈ 27.9 µg/mL)
maximum daily dose (boundary) predicted from BA-LRA score [4]: 300 mg
BA-LRA score ([4]; 600 mkd × 4-day, median signature score): 0.34
Structure (SMILES): O=C(CN1C(=O)C2(CCCC2)NC[C@H]1c1cc(F)cc(F)c1)Nc1ccc2c(c1)C[C@@]1(C2)C(=O)Nc2ncccc21 [MK-3207]
NRF2 activation (NRF2): no CYP-dependent effect on NRF2 activation
Cyp3A4 degradation (Cyp3A4): clear dose-dependent effect on Cyp3A4 degradation
urea (mito fx) / urea synthesis (rat HepatoPac): lack of urea synthesis inhibition; also recorded: no effect on urea to 80 µM
Liver Findings (rat [2]): No liver safety signal at Highest Dose tested
Liver Findings (NHP): No liver safety signal at Highest Dose tested
Liver Findings (Mouse): No liver safety signal at Highest Dose tested
Liver Findings (Dog): Slight periportal vacuolation
AUC [3]: 60 µM·h
biliary excretion of taurocholic acid (human HepatoPac [5]; 50 µM): no significant impact
mitochondrial toxicity (HepG2): No evidence for mitochondrial toxicity
incidence of subjects with ALT rises > 3-fold ULN (patients; Phase 2, 2 weeks, daily doses ≤ 100 mg (2/197)): 1%
patients with > 20-fold ALT rises (patients; among the 5 patients dosed above 500 mg daily): 3

Structure (SMILES): C[C@@H]1[C@H](c2ccccc2)C[C@H](NC(=O)c2cnc3c(c2)C[C@@]2(C3)C(=O)Nc3ncccc32)C(=O)N1CC(F)(F)F [Ubrogepant]
clinical liver safety profile (patients; clinical trials): superior clinical liver safety profile

Structure (SMILES): C[S+]([O-])CCCCN=C=S (stereo not drawn) [Sulforaphane, sulforaphane]
NRF2 activation with and without CYP450 expression (NRF2): gave similar results

NRF2 activation with and without CYP450 expression (NRF2): gave similar results
Structure (SMILES): Cc1c(-c2cnccn2)ssc1=S [Oltipraz, oltipraz]

Structure (SMILES): C/N=C(\S)NCCSCc1[nH]cnc1C [Metiamide]
rat BA-LRA result [4]: did not show a significant rat liver BA-LRA signal

NRF2 activation with and without CYP450 expression (NRF2): gave similar results
Structure (SMILES): COc1ccc2[nH]c([S+]([O-])Cc3ncc(C)c(OC)c3C)nc2c1 (stereo not drawn) [Omeprazole]

Structure (SMILES): Clc1ccccc1C(c1ccccc1)(c1ccccc1)n1ccnc1 [Clotrimazole]
tolerability of high repeat daily doses (rat [6]): not tolerated

Structure (SMILES): Cc1cc2c(s1)Nc1ccccc1N=C2N1CCN(C)CC1 [Olanzapine]
tolerability of high repeat daily doses (rat [6]): not tolerated
BA-LRA outcome, day 1 single dose study [4]: InsfT

NRF2 protein level in noninduced cells (NRF2; 6 h): not in noninduced cells
NRF2 protein level in cells expressing other CYP isoforms (NRF2): no effects on the NRF2 protein level
concentration at which NRF2 activation begins (NRF2; induced [+Dox] CYP2C9 expressing HEK293 cells, 6 h): approximately 25 µM
Structure (SMILES): Clc1ccccc1CN1CCc2sccc2C1 [Ticlopidine]

Structure (SMILES): Cc1cnc(NC(=O)C2=C(O)c3ccccc3S(=O)(=O)N2C)s1 [Meloxicam]
tolerability of high repeat daily doses (rat [6]): not tolerated

NRF2 protein level in noninduced cells (NRF2; 6 h): not apparent
NRF2 protein level in cells expressing other CYP isoforms (NRF2): not apparent
BA-LRA score calculated from TG-GATEs data (rat liver): 0.32
BA-LRA score ([4]; at 24 h (Figs. 2 and 3)): 0.54
Structure (SMILES): CC(=O)Nc1ccc(O)cc1 [Acetaminophen]

Structure (SMILES): CC1(C)CC[C@]2(C(=O)O)CC[C@]3(C)[C@H](C(=O)C=C4[C@@]5(C)C=C(C#N)C(=O)C(C)(C)[C@@H]5CC[C@]43C)[C@@H]2C1 [Bardoxolone]
NRF2 activation with and without CYP450 expression (NRF2): induced NRF2 activation in a similar fashion under both [− Dox] and [+ Dox] conditions

rat BA-LRA result [4]: significant BA-LRA signal
BA-LRA outcome, day 1 single dose study [4]: BA-LRA positive
Structure (SMILES): CN1CCN(C2=Nc3cc(Cl)ccc3Nc3ccccc32)CC1 [Clozapine]

Structure (SMILES): O=C(N[C@@H]1CC[C@@H](c2cccc(F)c2F)CN(CC(F)(F)F)C1=O)N1CCC(n2c(=O)[nH]c3ncccc32)CC1 [Telcagepant]
tolerability of high repeat daily doses (rat [6]): poorly tolerated
covalent protein binding in human hepatocytes (human hepatocytes): high covalent binding
NRF2 activation (NRF2): no effect was seen
Cyp3A4 degradation (Cyp3A4): no effect was seen
BA-LRA (in vitro) [7]: well exceeding the threshold of the assay
BA-LRA (in vitro) ([7]; listed as MK-0974/Telcagepant): > 0.2
in vitro BA-LRA transcriptional response to CRM responsive genes (human HepatoPac [8]): well exceeding the threshold of the assay
urea (mito fx) / urea synthesis (rat HepatoPac): no inhibition of urea synthesis
urea (mito fx) / urea synthesis (rat HepatoPac; listed as MK-0974/Telcagepant): no effect on urea to 100 µM
urea synthesis (human HepatoPac [1]): no inhibition of urea synthesis
exposure multiple of BSEP IC50 above calculated free unbound liver inlet Cmax [9]: 17.5 fold
Liver Findings (rat [2]): No liver safety signal at Highest Dose tested
Liver Findings (NHP): No liver safety signal at Highest Dose tested
Liver Findings (Mouse): No liver safety signal at Highest Dose tested
maximum daily dose (boundary) predicted from BA-LRA score [4]: < 600 mg
BA-LRA score ([4]; 400 mkd × 4 days, peak score): 0.30
Biliary Excretion Index IC50 (human HepatoPac [5]): 16 µM
synergy expected for a BSEP inhibitor (BSEP): no evidence for synergy
mitochondrial toxicity (HepG2): unlikely mechanism of concern

covalent protein binding in human hepatocytes (human hepatocytes): high CPB
Structure (SMILES): CN/C(=N/CCSCc1nc[nH]c1C)NC#N [Cimetidine]

covalent protein binding in human hepatocytes (human hepatocytes): high CPB
Structure (SMILES): CNS(=O)(=O)Cc1ccc2[nH]cc(CCN(C)C)c2c1 [Sumatriptan]

Structure (SMILES): Nc1c2c(nc3ccccc13)CCCC2 [Tacrine]
tolerability of high repeat daily doses (rat [6]): not tolerated
